Data published in ChEMBL document CHEMBL1201862, “PubChem BioAssay data set” (2004).
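Five compound concentrations were applied to cells in 96-well plates for 48 hours; endpoints were derived by simple linear interpolation of the resulting dose-response curve. GI50 marks 50% less growth.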 The source made the active and inactive calls. Cut-off read from the data, not from the text of the source: active = GI50 up to about 1.1 µM and inactive = higher.

What was measured:
Test in all cases: growth of human tumour cells (NCI), 48 h
SW-620 = tested on: SW-620
MCF7 = tested on: MCF7
NCI-H522 = tested on: NCI-H522
LOX IMVI = tested on: LOX IMVI
MDA-MB-231 = tested on: MDA-MB-231
EKVX = tested on: EKVX
RXF 393 = tested on: RXF 393
OVCAR-5 = tested on: OVCAR-5
PC-3 = tested on: PC-3
HCT-116 = tested on: HCT-116
NCI-H23 = tested on: NCI-H23
MDA-N = tested on: MDA-N
RPMI-8226 = tested on: RPMI-8226
IGROV-1 = tested on: IGROV-1
NCI-H226 = tested on: NCI-H226
HOP-92 = tested on: HOP-92
HCC 2998 = tested on: HCC 2998
SK-MEL-28 = tested on: SK-MEL-28
CCRF-CEM = tested on: CCRF-CEM
A498 = tested on: A498
NCI/ADR-RES = tested on: NCI/ADR-RES
ACHN = tested on: ACHN
KM12 = tested on: KM12
MOLT-4 = tested on: MOLT-4
NCI-H460 = tested on: NCI-H460
HT-29 = tested on: HT-29
OVCAR-4 = tested on: OVCAR-4
SK-MEL-5 = tested on: SK-MEL-5
M14 = tested on: M14
OVCAR-3 = tested on: OVCAR-3
SF-295 = tested on: SF-295
Hs-578T = tested on: Hs-578T
786-0 = tested on: 786-0
UO-31 = tested on: UO-31
SK-MEL-2 = tested on: SK-MEL-2
SK-OV-3 = tested on: SK-OV-3
HCT-15 = tested on: HCT-15
HOP-62 = tested on: HOP-62
U-251 = tested on: U-251
UACC-257 = tested on: UACC-257
SF-268 = tested on: SF-268
CAKI-1 = tested on: CAKI-1
MDA-MB-435 = tested on: MDA-MB-435
K562 = tested on: K562
TK-10 = tested on: TK-10
T47D = tested on: T47D
OVCAR-8 = tested on: OVCAR-8
SF-539 = tested on: SF-539
DU-145 = tested on: DU-145
HL-60 = tested on: HL-60
COLO 205 = tested on: COLO 205
SNB-19 = tested on: SNB-19
UACC-62 = tested on: UACC-62
SNB-75 = tested on: SNB-75
A549 = tested on: A549

Measured: GI50

COc1ccc(C2=NN(C(=O)c3ccc(Cl)cc3)C(O)(c3cc(F)c(Cl)cc3Cl)C2)cc1OC (centres undefined)
inactive: SW-620 6.97 µM | MCF7 4.61 µM | NCI-H522 6.68 µM | LOX IMVI 37.9 µM | MDA-MB-231 > 100 µM | EKVX 27.7 µM | RXF 393 6.17 µM | OVCAR-5 > 100 µM | PC-3 6.44 µM | HCT-116 6.14 µM | NCI-H23 47.1 µM | MDA-N 15.5 µM | RPMI-8226 6.03 µM | IGROV-1 35.1 µM | NCI-H226 > 100 µM | HOP-92 13.2 µM | HCC 2998 8.24 µM | SK-MEL-28 > 100 µM | CCRF-CEM 1.99 µM | A498 5.2 µM | NCI/ADR-RES 9.77 µM | ACHN 14.9 µM | KM12 8.15 µM | MOLT-4 4.13 µM | NCI-H460 9.14 µM | HT-29 4.29 µM | OVCAR-4 18 µM | SK-MEL-5 33.1 µM | M14 12.5 µM | OVCAR-3 41.8 µM | SF-295 26 µM | Hs-578T 24 µM | 786-0 17.8 µM | UO-31 3.08 µM | SK-MEL-2 78.7 µM | SK-OV-3 > 100 µM | HOP-62 99.8 µM | U-251 19.2 µM | UACC-257 31.3 µM | SF-268 21.2 µM | CAKI-1 18.6 µM | MDA-MB-435 13.2 µM | K562 5.82 µM | TK-10 86.7 µM | T47D 6.27 µM | OVCAR-8 58.1 µM | SF-539 > 100 µM | DU-145 8.51 µM
active: HL-60 0.495 µM
8.28 µM: HCT-15

CN1C/C(=C\c2ccccc2[N+](=O)[O-])C(=O)/C(=C/c2ccccc2[N+](=O)[O-])C1
0.262 µM: HCT-15
active: SW-620 0.201 µM | MCF7 0.348 µM | COLO 205 0.25 µM | HCT-116 0.195 µM | IGROV-1 0.782 µM | HOP-92 0.836 µM | HCC 2998 1.01 µM | NCI/ADR-RES 1.03 µM | MOLT-4 0.238 µM | SK-MEL-5 0.902 µM | 786-0 0.277 µM | UO-31 0.303 µM | UACC-62 0.771 µM | HL-60 0.112 µM
inactive: PC-3 1.23 µM | NCI-H226 5.05 µM | A498 2.17 µM | KM12 1.99 µM | NCI-H460 1.79 µM | SNB-19 4.26 µM | SK-MEL-2 2.11 µM | SK-OV-3 3.02 µM | HOP-62 2.48 µM | U-251 1.19 µM | TK-10 1.17 µM | SNB-75 2.21 µM | A549 3.55 µM | DU-145 2.2 µM
